Test results as given in US9714260B2, “Asymmetrical Si rhodamine and rhodol synthesis” (THE UNIVERSITY OF TOKYO, priority 2013, dated 2017).

Key:
[1] = Optical characteristics of Compound 10 and predicted compound after reaction with active oxygen; format: physicochemical; details: 1 μM in PBS (pH 7.4), 0.1% DMF
Protocol: The absorbance and fluorescence spectra (left side of FIG. 19) of 1 μM of compound 10 in PBS (pH 7.4) containing 0.1% DMF as a cosolvent, the absorbance and fluorescence spectra (right side of FIG. 19) of the compound predicted to be generated following a reaction of compound 10 and 1 μM active oxygen, and the optical characteristics of each compound were measured (Table 9).

[2] = system: HL60 cells; assay: Cell-imaging experiment using HL60 cells; format: cell-based; details: 1 μM probe, 1 mM H2O2 stimulation, 45 minutes
Protocol: HL60 cells were cultured. […] The fluorescence image was observed thereafter.

[3] = Reactivity and selectivity of Compound 10 toward active-oxygen species
Protocol: Next, an analysis was carried out using the HPLC of a reaction induced by an active-oxygen-species. […] A sample was subjected to HPLC linear gradient elution (eluate: A/B=60/40—10 minutes—0/100; flow rate=1.0 mL/minute). Next, the selectivity of active-oxygen species of compound 10 was examined. The conditions of various active-oxygen species were as follows. H2O2: […] ONOO^−: […] O2^−: […] Hydroxy radical: H2O2 (final 1 mM) and FeClO4 (final 100 μM) were added.

For `CC/[N+](=C1\C=CC2=C(c3ccccc3C)c3cc4c(cc3[Si](C)(C)C2=C1)N(C)CC4)c1ccc(O)cc1` [Compound 10, 2MeIndo-N-ethyl-phenol-SiR], the Absmax [1] was 670 nm, the “increase in fluorescence inside cells relative to no stimulation” value [2] was “about four” and the “selectivity of active-oxygen species” value ([3]; H2O2, −OCl, ONOO−, O2−, hydroxy radical) was “reacted selectively with ^−OCl and ONOO^−”. For the same compound, the “reaction with −OCl (HPLC, ESI-MS analysis)” value ([3]; −OCl) was “produce the predicted reactant” and the “increase in fluorescence after reaction with active-oxygen species” value ([3]; −OCl and ONOO−) was 100 times.
